Columns and labels:
Format in all cases: physicochemical, human
[1] = GC/MS of blood plasma sample: number of times of freezing and thawing (Table C); conditions: for Increase or decrease: detection intensity; for Rate of increase or decrease (second value, decrease) / Rate of increase or decrease (first value, increase): different from individual to individual, relative to 1 at 2 times; for Rate of increase or decrease (second value, decrease): individuals with decrease; for Rate of increase or decrease (first value, increase): individuals with increase; for Rate of increase or decrease: detection intensity relative to 1 at 2 times
Summary of the method: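 EDTA plasma from a healthy subject, cooled within 1 min or after 5+ min, centrifuged 4 °C/3000 rpm/15 min, frozen, then freeze-thawed 2, 4, 6 or 10 times. Methoximated, trimethylsilylated samples run by GC/MS (BPX5 column, EI, MRM). Values are detection intensity relative to 2 freeze-thaw cycles set as 1.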

[2] = GC/MS of serum sample: time from centrifugation to isolation (Table H); parameters: key to Rate of increase or decrease / Rate of increase or decrease (first value, increase): detection intensity relative to 1 at 30 min centrifugation-to-isolation; conditions: for Rate of increase or decrease: detection intensity relative to 1 at 30 minutes, after 1 hour; for Increase or decrease: detection intensity, after 1 hour vs 30 minutes
Summary of the method: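 Blood was centrifuged at room temperature, 3500 rpm, 5 min, and the vessel left at room temperature for 30 min, 1 h or 6 h before serum isolation. Serum was methoxymated, trimethylsilylated and analysed by GC/MS with electron ionization in MRM mode; intensities expressed relative to the 30-min condition (=1).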

[3] = GC/MS of serum sample: time from blood collection to centrifugation (Table G); conditions: blood collection to centrifugation; for Rate of increase or decrease: detection intensity relative to 1 at 15 minutes; for Increase or decrease: detection intensity
Summary of the method: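 Blood was held for varying times before centrifugation (room temperature, 3500 rpm, 5 min); serum was frozen, then methoxymated and trimethylsilylated for GC/MS with electron ionization in MRM mode. Values are detection intensities relative to the 15-minute collection-to-centrifugation condition, set as 1.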

[4] = GC/MS of blood plasma sample: time from blood collection to centrifugation (Table A); conditions: for Increase or decrease: detection intensity; for Increase or decrease / Rate of increase or decrease: blood collection to centrifugation; for Rate of increase or decrease (second value, decrease) / Rate of increase or decrease (first value, increase): different from individual to individual, relative to 1 at 15 minutes, collection to centrifugation; for Rate of increase or decrease (second value, decrease): individuals with decrease; for Rate of increase or decrease (first value, increase): individuals with increase; for Rate of increase or decrease: detection intensity relative to 1 at 15 minutes
Summary of the method: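 EDTA blood from a healthy subject was cooled at 4° C, centrifuged at 4° C, 3000 rpm, 15 minutes, and plasma was frozen. After methoxymation and trimethylsilylation, samples ran on GC/MS (BPX5 column, 60-330° C gradient, electron ionization, MRM). Intensity is relative to 15 minutes from collection to centrifugation.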

[5] = GC/MS of blood plasma sample: time from blood collection to cooling of blood (Table B); parameters: key to Rate of increase or decrease / Rate of increase or decrease (first value, increase): detection intensity relative to 1 at cooling time ≤1 min; conditions: for Increase or decrease: detection intensity, blood collection to cooling 5 minutes or more vs 1 minute or less; for Rate of increase or decrease (second value, decrease) / Rate of increase or decrease (first value, increase): different from individual to individual, relative to 1 at 1 minute or less, collection to cooling 5 minutes; for Rate of increase or decrease (second value, decrease): individuals with decrease; for Rate of increase or decrease (first value, increase): individuals with increase; for Rate of increase or decrease: detection intensity relative to 1 at 1 minute or less, blood collection to cooling 5 minutes
Experimental: At room temperature, 5 mL of blood from a healthy subject was taken into a blood-collecting vessel containing EDTA, and the blood-collecting vessel was inverted for mixing, then cooled, and allowed to stand at 4° C. Here, in order to investigate how the detection intensity of molecules contained in the sample was affected in a case where the time to cooling was set to 5 minutes or more as compared to that in a case where the time to cooling was set to 1 minute or less, preparations were performed under both the former condition and the latter condition. After standing, the blood sample was subjected to centrifugation under a condition of 4° C., 3000 rpm, and 15 minutes. […] After centrifugation, the blood-collecting vessel was left to stand at room temperature for 30 minutes, and the blood plasma was isolated during this 30 minutes. The obtained blood plasma sample was frozen and stored. Here, in order to investigate how the detection intensity of molecules contained in the sample was affected in cases where freezing and thawing was performed 4 times, 6 times, and 10 times after freezing as compared to that in a case where freezing and thawing was performed 2 times after freezing, freezing and thawing was performed under the respective conditions of 2, 4, 6, and 10 times.
Frozen blood plasma samples and serum samples were subjected to GC/MS or LC/MS. In GC/MS, the blood plasma samples and serum samples were subjected to methoxymation and trimethylsilylation and then introduced to GC-MS.
GC/MS was conducted using GCMS·TQ8040 (Shimadzu Corporation) that was a GC·MS equipped with AOC·20i (Shimadzu Corporation) as an autosampler.
Column: BPX5 (inner diameter of 0.25 mm, length of 30 m, and film thickness of 0.25 μm) (SGE)
Column temperature: maintained at 60° C. for 2 minutes, then raised at 15° C./min, and maintained at 330° C. for 3 minutes.
Inlet temperature: 250° C.
Carrier gas control mode: constant linear velocity of 39.0 cm/sec
Sample introduction method: split (split ratio of 30:1) Injection volume: 1 μL
Ionization method: electron ionization
Ionization current: 60 μA
Interface temperature: 280° C.
Ion source temperature: 200° C.
Mode: multiple reaction monitoring (MRM)
Table B presents compounds of which the detection intensity increased or decreased by 30% or more in a case where the time from blood collection to cooling of blood, when a blood plasma sample was analyzed by GC/MS, was set to 5 minutes or more as compared to that in a case where the time was set to 1 minute or less. The rate of increase or decrease in Table B is the value of detection intensity relative to 1 that is the detection intensity in a case where the time from blood collection to cooling is set to 1 minute or less.

[6] = GC/MS of serum sample: number of times of freezing and thawing (Table I); parameters: key to Rate of increase or decrease / Rate of increase or decrease (first value, increase): detection intensity relative to 2 freeze-thaw cycles = 1; conditions: for Rate of increase or decrease: detection intensity relative to 1 at 2 times; for Number of times when compound is affected: detection intensity changed by 30% or more vs 2 times of freezing and thawing
Summary of the method: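 Serum was isolated after centrifugation at room temperature (3500 rpm, 5 min), frozen, and put through 2, 4, 6 or 10 freeze–thaw cycles. Samples were methoxymated and trimethylsilylated, then run by electron-ionization GC/MS in MRM mode on a BPX5 column (60 to 330 °C). Detection intensity is given relative to the 2-cycle sample, set as 1.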

[7] = freezing and thawing 6 times vs 2 times
[8] = freezing and thawing 4 times vs 2 times
[9] = serum, GC/MS, freezing and thawing 4 times
[10] = detection intensity, serum, GC/MS, freezing and thawing 4 times vs 2 times
[11] = 10 times of freezing and thawing
[12] = serum sample, GC/MS, detection intensity vs 2 times of freezing and thawing
[13] = freezing and thawing 10 times vs 2 times

Structure (SMILES)	Increase or decrease [1, 7]	Rate of increase or decrease [2]	Increase or decrease [2]	Increase or decrease ([4]; after 4 hours vs 15 minutes)	Rate of increase or decrease (second value, decrease) ([4]; after 4 hours)	Rate of increase or decrease (first value, increase) ([4]; after 4 hours)	Increase or decrease [5]	Rate of increase or decrease (second value, decrease) [5]	Rate of increase or decrease (first value, increase) [5]	Increase or decrease [1, 8]	Rate of increase or decrease (second value, decrease) ([1]; freezing and thawing 4 times)	Rate of increase or decrease (first value, increase) ([1]; freezing and thawing 4 times)	Rate of increase or decrease ([3]; after 4 hours)	Increase or decrease ([3]; after 4 hours vs 15 minutes)	Rate of increase or decrease ([4]; after 4 hours)	Rate of increase or decrease [5]	other results
Oc1ccccn1 [2-Hydroxypyridine]	–	1.44	Increase	Decrease	–	–	Decrease	–	–	Different from individual	0.54	2.48	2.55	Increase	0.57	0.59	Rate of increase or decrease [6, 9]: 0.50; Increase or decrease [6, 10]: Decrease
OC[C@H]1O[C@H](O[C@H]2O[C@H](CO)[C@@H](O)[C@H](O)[C@H]2O)[C@H](O)[C@@H](O)[C@@H]1O [Trehalose]	Increase	1.45	Increase	–	–	–	Different from individual	0.58	5.01	–	–	–	–	–	–	–	Rate of increase or decrease ([1]; freezing and thawing 6 times): 1.98; Rate of increase or decrease ([3]; after 8 hours): 1.50; Increase or decrease ([3]; after 8 hours vs 15 minutes): Increase; Rate of increase or decrease [6, 11]: 0.69; Number of times when compound is affected ([6]; serum sample, GC/MS): 10 times; Increase or decrease [6, 12]: Decrease; Rate of increase or decrease ([4]; after 8 hours): 0.56; Increase or decrease ([4]; after 8 hours vs 15 minutes): Decrease
OC[C@@H](O)[C@@H](O[C@@H]1O[C@H](CO)[C@H](O)[C@H](O)[C@H]1O)[C@H](O)[C@@H](O)CO [Lactitol]	–	1.60	Increase	Different from individual	0.22	3.36	Decrease	–	–	–	–	–	3.20	Increase	–	0.67	Rate of increase or decrease ([1]; freezing and thawing 10 times): 1.73; Increase or decrease [1, 13]: Increase
Oc1ccc(O)cc1 [Hydroquinone]	–	–	–	Increase	–	–	Decrease	–	–	Different from individual	0.69	3.54	–	–	17.48	0.66	–

Continued, in another order:

Increase or decrease [1, 7]	Rate of increase or decrease [2]	Increase or decrease [2]	Increase or decrease ([4]; after 4 hours vs 15 minutes)	Rate of increase or decrease (second value, decrease) ([4]; after 4 hours)	Rate of increase or decrease (first value, increase) ([4]; after 4 hours)	Increase or decrease [5]	Rate of increase or decrease (second value, decrease) [5]	Rate of increase or decrease (first value, increase) [5]	Increase or decrease [1, 8]	Rate of increase or decrease (second value, decrease) ([1]; freezing and thawing 4 times)	Rate of increase or decrease (first value, increase) ([1]; freezing and thawing 4 times)	Rate of increase or decrease ([3]; after 4 hours)	Increase or decrease ([3]; after 4 hours vs 15 minutes)	Rate of increase or decrease ([4]; after 4 hours)	Rate of increase or decrease [5]	Structure (SMILES)	other results
Different from individual	1.69	Increase	Different from individual	0.66	1.69	Different from individual	0.69	1.64	–	–	–	–	–	–	–	CC(=O)N[C@@H](CO)C(=O)O [N-acetylserine]	Rate of increase or decrease (second value, decrease) ([1]; freezing and thawing 6 times): 0.69; Rate of increase or decrease (first value, increase) ([1]; freezing and thawing 6 times): 1.39; Rate of increase or decrease ([3]; after 12 hours): 1.44; Increase or decrease ([3]; after 12 hours vs 15 minutes): Increase
–	–	–	Different from individual	0.66	4.41	Increase	–	–	Increase	–	–	–	–	–	1.96	O=C(CO)[C@H](O)[C@H](O)CO [Ribulose]	Rate of increase or decrease ([1]; freezing and thawing 4 times): 1.38; Rate of increase or decrease ([3]; after 8 hours): 1.72; Increase or decrease ([3]; after 8 hours vs 15 minutes): Increase; Rate of increase or decrease [6, 11]: 0.68; Number of times when compound is affected ([6]; serum sample, GC/MS): 10 times; Increase or decrease [6, 12]: Decrease
–	1.43	Increase	Different from individual	0.47	1.75	Different from individual	0.54	1.38	–	–	–	1.65	Increase	–	–	O=C(O)/C=C\C(=O)O [Maleic acid]	Rate of increase or decrease ([1]; freezing and thawing 10 times): 2.12; Increase or decrease [1, 13]: Increase; Rate of increase or decrease [6, 9]: 2.62; Increase or decrease [6, 10]: Increase
Decrease	–	–	Different from individual	0.32	4.90	Increase	–	–	–	–	–	1.39	Increase	–	–	O=P(O)(O)OCC(O)CO (stereo not shown) [Glycerol-3-phosphate]	Rate of increase or decrease ([1]; freezing and thawing 6 times): 0.41
–	–	–	Increase	–	–	Different from individual	0.41	1.67	Different from individual	0.68	1.70	–	–	2.24	–	O=C(O)c1cccnc1C(=O)O [Quinolinic acid]	–

Source: US20220146526A1, “METHOD FOR EVALUATING SAMPLE, ANALYSIS METHOD, METHOD FOR DETECTING DEGRADED SAMPLE, MARKER FOR DETECTING DEGRADED BLOOD PLASMA SAMPLE, AND MARKER FOR DETECTING DEGRADED SERUM SAMPLE” (SHIMADZU CORPORATION, priority 2019, published 2022)
